Data as given in ChEMBL document CHEMBL5608195, “Identification and biological evaluation of fused tetrahydroisoquinoline derivatives as Wnt/β-catenin signaling inhibitors to suppress colorectal cancer” (Eur J Med Chem, 2024).
The source made the active and inactive calls. The calls are words filed in the database; no cut-off is given here.

Legend:
[1] = Bioavailability in male ICR (CD-1) mouse at 10 mg/kg, ip measured upto 24 hrs by LC-MS/MS analysis; type: ADME, organism-based; settings: in vivo
[2] = tested on: HCT-116; assay: Antiproliferative activity against human HCT-116 cells assessed as inhibition of DNA replication at 10 uM incubated for 22 hrs by fluorescence based microscopic analysis; type: functional, cell-based
[3] = tested on: HCT-116; assay: Antiproliferative activity against human HCT-116 cells assessed as inhibition rate at 20 uM incubated for 24 hrs by MTT assay relative to control; type: functional
[4] = tested on: HCT-116; assay: Antiproliferative activity against human HCT-116 cells incubated for 24 hrs by MTT assay; type: functional, cell-based; settings: HCT-116, 24 h
[5] = tested on: RKO; assay: Antiproliferative activity against human RKO cells incubated for 24 hrs by MTT assay; type: functional, cell-based
[6] = Half life in male ICR (CD-1) mouse at 20 mg/kg, po measured upto 24 hrs by LC-MS/MS analysis; type: ADME, organism-based; settings: in vivo
[7] = Clearance in male ICR (CD-1) mouse at 5 mg/kg, iv measured upto 24 hrs by LC-MS/MS analysis; type: ADME, organism-based; settings: in vivo
[8] = tested on: RKO; assay: Antiproliferative activity against human RKO cells assessed as inhibition of DNA replication at 10 uM incubated for 22 hrs by fluorescence based microscopic analysis; type: functional, cell-based
[9] = tested on: RKO; assay: Inhibition of colony formation human RKO cells incubated for 24 hrs by crystal violet staining based analysis; type: functional, cell-based; settings: dose 6-10 µM
[10] = tested on: HCT-116; assay: Induction of cell cycle arrest in human HCT-116 cells assessed as accumulation of cells at S phase incubated for 24 hrs by PI staining based flow cytometry; type: functional; settings: dose 6-10 µM
[11] = tested on: HCT-116; assay: Induction of cell cycle arrest in human HCT-116 cells assessed as accumulation of cells at G2/M phase incubated for 24 hrs by PI staining based flow cytometry; type: functional; settings: dose 6-10 µM
[12] = tested on: RKO; assay: Induction of cell cycle arrest in human RKO cells assessed as accumulation of cells at S phase incubated for 24 hrs by PI staining based flow cytometry; type: functional; settings: dose 6-10 µM
[13] = tested on: RKO; assay: Induction of cell cycle arrest in human RKO cells assessed as accumulation of cells at G2/M phase incubated for 24 hrs by PI staining based flow cytometry; type: functional; settings: dose 6-10 µM
[14] = tested on: RKO; assay: Induction of cell cycle arrest in human RKO cells assessed as downregulation of Cyclin D1 protein level by Western blot analysis; type: functional, cell-based
[15] = tested on: RKO; assay: Induction of cell cycle arrest in human RKO cells assessed as downregulation of Cyclin B1 protein level by Western blot analysis; type: functional, cell-based
[16] = tested on: HCT-116; assay: Induction of cell cycle arrest in human HCT-116 cells assessed as upregulation of P21 protein level by Western blot analysis; type: functional, cell-based
[17] = tested on: RKO; assay: Induction of cell cycle arrest in human RKO cells assessed as upregulation of P21 protein level by Western blot analysis; type: functional, cell-based
[18] = tested on: HCT-116; assay: Inhibition of Wnt/beta-catenin signaling pathway in human HCT-116 cells assessed as downregulation of beta-catenin expression incubated for 24 hrs by qRT-PCR analysis; type: cell-based; settings: dose <= 10.0 µM
[19] = tested on: HCT-116; assay: Inhibition of Wnt/beta-catenin signaling pathway in human HCT-116 cells assessed as induction of beta-catenin degradation pretreated with cycloheximide followed by compound addition by Western blot analysis; type: cell-based; settings: time <= 6.0 hrs, TDE = time-dependent effect
[20] = tested on: RKO; assay: Inhibition of Wnt/beta-catenin signaling pathway in human RKO cells assessed as induction of beta-catenin degradation in presence of MG132 by Western blot analysis; type: cell-based
[21] = molecular target: T1, Heat shock protein HSP90 (Homo sapiens) (UniProt P07900+P08238); assay: Induction of thermal stabilization of Hsp90 in human HCT-116 cells at 37 to 82 degree C at 100 uM incubated for 1 hr by thermal shift assay; type: cell-based
[22] = molecular target: T1, Heat shock protein HSP90 (Homo sapiens); assay: Induction of thermal stabilization of Hsp90 in human RKO cells at 37 to 82 degree C at 100 uM incubated for 1 hr by thermal shift assay; type: cell-based
[23] = species: Homo sapiens; assay: Induction of human HSP90 stabilization assessed as protection against pronase E-mediated hydrolysis at 25 to 50 uM incubated for 1 hr by DART assay; settings: dose 25-50 µM
[24] = Toxicity in male BALB/c mouse xenografted with human HCT-116 cells assessed as effect on serum creatinine level at 10 to 40 mg/kg, ip by biochemical analysis; type: organism-based; settings: in vivo, dose 10-40 mg/kg
[25] = Toxicity in male BALB/c mouse xenografted with human HCT-116 cells assessed as effect on serum urea level at 10 to 40 mg/kg, ip by biochemical analysis; type: organism-based; settings: in vivo, dose 10-40 mg/kg
[26] = Toxicity in male BALB/c mouse xenografted with human HCT-116 cells assessed as histological change in liver at 10 to 40 mg/kg, ip by H and E staining based optical microscopic analysis; type: organism-based; settings: in vivo, dose 10-40 mg/kg
[27] = Toxicity in male BALB/c mouse xenografted with human HCT-116 cells assessed as histological change in spleen at 10 to 40 mg/kg, ip by H and E staining based optical microscopic analysis; type: organism-based; settings: in vivo, dose 10-40 mg/kg
[28] = Toxicity in male BALB/c mouse xenografted with human HCT-116 cells assessed as histological change in kidney at 10 to 40 mg/kg, ip by H and E staining based optical microscopic analysis; type: organism-based; settings: in vivo, dose 10-40 mg/kg
[29] = tested on: HCT-116; assay: Antitumor activity against human HCT-116 cells xenografted in male BALB/c mouse assessed as decrease in Ki-67 protein level at 10 to 40 mg/kg, ip by Immunohistochemical staining based analysis; type: functional, organism-based; settings: dose 10-40 mg/kg
[30] = tested on: HCT-116; assay: Inhibition of Hsp90/beta-catenin in human HCT-116 cells at 6 to 10 uM incubated for 24 hrs by co-immunoprecipitation analysis; type: cell-based; settings: dose 6-10 µM
[31] = tested on: RKO; assay: Inhibition of Hsp90/beta-catenin in human RKO cells at 6 to 10 uM incubated for 24 hrs by co-immunoprecipitation analysis; type: cell-based; settings: dose 6-10 µM

bioavailability [1]: 97% | IC50 [4]: 8.31 µM | half-life [6]: 2.6 h | clearance [7]: 56.1 mL/min/kg | Activity [21]: Active | Activity [22]: Active | Activity [23]: Active
Structure (SMILES): CC12c3ccc(Cl)cc3CCN1CCc1c2[nH]c2ccc(Cl)cc12 (stereo unspecified)
Activity [2]: Active | inhibition at 20 µM [3]: 89.2% | IC50 [5]: 7.97 µM | Activity [8]: Active | inhibition [9]: Dose-Dependent Effect | Activity [10]: Dose-Dependent Effect | Activity [11]: Dose-Dependent Effect | Activity [12]: Dose-Dependent Effect | Activity [13]: Dose-Dependent Effect | Activity [14]: Dose-Dependent Effect | Activity [15]: Dose-Dependent Effect | Activity [16]: Dose-Dependent Effect | Activity [17]: Dose-Dependent Effect | inhibition [18]: Dose-Dependent Effect | inhibition [19]: Tde | inhibition [20]: inactive | Activity [24]: Non-Toxic | Activity [25]: Non-Toxic | Activity [26]: Non-Toxic | Activity [27]: Non-Toxic | Activity [28]: Non-Toxic | Activity [29]: Active | inhibition [30]: Dose-Dependent Effect | inhibition [31]: Dose-Dependent Effect
